Measurements as given in paper PMC10487708, “Chlorin E6-Curcumin-Mediated Photodynamic Therapy Promotes an Anti-Photoaging Effect in UVB-Irradiated Fibroblasts” (International Journal of Molecular Sciences, 2023).
Where two headings read alike, the source gives them in different places.

Experiments:
[1] = tested on: collagen synthesis in Hs68 cells; experiment: Sircol collagen assay in UVB-irradiated Hs68 cells; format: cell-based, human; conditions: 30–40 nM, UVB 200 mJ/cm^2, LED irradiated
Method: The amount of collagen was measured through the Sircol collagen assay kit (Figure 8).
Each scale value is shown as the mean only.
Following this, 1 mL Sirius red dye, an anionic dye that reacts specifically with the basic side chain groups of collagens under the assay conditions, was added to 300 µL of cell culture medium supernatant and incubated with gentle rotation for 30 min at room temperature. After centrifugation, the pellet was washed with ice-cold acid-salt wash reagent released in alkali reagent, and the absorbance at 570 nm was measured using an ELISA reader (Sunrise, Tecan, Männedorf, Switzerland). The amount of collagen was calculated based on a standard curve obtained with the standard bovine type I collagen supplied with the kit.

[2] = ABTS radical scavenging activity; format: biochemical
Method: […] in 2.5 mM potassium persulfate for more than 16 h to develop 7 mM 2,2′-azinobis-(3-ethylbenzothiazoline-6-sulfonic acid diammonium salt) (ABTS), and ethanol was diluted to obtain an absorbance of 0.3 at 620 nm. Each composite sample was diluted by concentration, and 100 μL of the sample was put into each well along with 50 μL each of ABTS reagent and solvent; reacted at room temperature for 10 min, and absorbance was measured at 620 nm. ABTS activity inhibition (%) = 100 − [test group-blank]/(control group-blank) × 100]

[3] = MTT cytotoxicity of Ce6-curcumin derivative PDT in BALB/c 3T3 cells; format: cell-based, mouse; conditions: mouse, BALB/c 3T3 cells; 3 h treatment, 660 nm 20 J/cm^2, MTT after 24 h, tested 200 to 6400 nM; read-out: IC50 cytotoxicity against BALB/c 3T3 cells
Method: (§1) MTT assay was used to evaluate viability after 24 h. IC50 values were calculated using GraphPad Prism 5 software.
(§2) Hs68 and BALB/c 3T3 cell viability was measured using a 3-[4,5-dimethylthylthiazol-2-yl]-2,5 diphenyl tetrazolium bromide (MTT) assay. The cells were cultured in 24-well plates at a density of 3 × 10^4 cells per well or BALB/c 3T3 cells at a density of 1 × 10^4 cells per well. […] The Hs68 cells were then exposed to LED light (660 nm; 89 W/m^2; 20 J/cm^2) for 37 min 27 s and incubated for 3 h. […] The cells were washed and treated with MTT, after which the plates were incubated at 37 °C in the dark for 2 h. After the formation of formazan, 100 µL of DMSO was added, and the absorbance was measured at 570 nm using a microtiter plate reader (Thermo-scientific, Skanlt software 5.0, Waltham, MA, USA)

[4] = tested on: UVB-irradiated BALB/c 3T3 cells; experiment: MTT cell viability of UVB-irradiated BALB/c 3T3 cells; format: cell-based, mouse; conditions: UVB 200 mJ/cm^2, 0.2–8 μM, 24 h
Method: To investigate the proper dose of UVB irradiation, BALB/c 3T3 cells were exposed to different doses of UVB (50, 100, 200, 800, 1600 mJ/cm^2) for 24 h. […] Therefore, the dose of 200 mJ/cm^2 was used in the subsequent in vitro studies to evaluate the protective effect of Ce6-PDT. The effect of Ce6-curcumin derivatives on BALB/c 3T3 cell viability was evaluated with the MTT assay.
Figure 6 The effect of Ce6-curcumin derivatives on UVB-irradiated BALB/c 3T3 cells. (A) Cell viability of BALB/c 3T3 cells irradiated with different doses of UVB (50, 100, 200, 800, 1600 mJ/cm^2) for 24 h. […] Data were represented as mean ± SD from at least three independent experiments and analyzed by one-way ANOVA with Tukey’s post hoc test, * p < 0.01, compared with UVB-treated groups.
BALB/c 3T3 cells were seeded at a density of 1 × 10^4 cells/well in 96-well plates for 24 h. The culture medium was replaced with phosphate-buffered saline (PBS), and the cells were pretreated with UVB (200 mJ/cm^2) before being incubated for 24 h incubation in an FBS-free medium containing different concentrations of Ce6-curcumin derivatives. Cell viability was measured by MTT assay.

[5] = Ex vivo fluorescence imaging and biodistribution in ICR mice; conditions: 2.5 mg/kg IV, 3 h post-injection
Method: To confirm the organ-specific signaling intensities of different Ce6-curcumin derivatives, we measured ex-vivo FLI in different organs of ICR mice after 3 h of intravenous drug administration. The drug interval time of 3 h before light irradiation in PDT for Ce6-curcumin derivatives can be explained by the pharmacokinetics and imaging study of Ce6 provided in Figures S1 and S2. Three hours after IV injection of 2.5 mg/kg of Ce6- hexane-curcumin, Ce6-propane-curcumin, and Ce6-diPEG-curcumin, ex-vivo images were obtained. […] Furthermore, the fluorescence intensity of Ce6-curcumin derivatives was highest in organs with a larger blood supply, including the liver and lungs.
(B) Biodistribution of the three Ce6-curcumin derivatives in the organ lysates after 3 h post-injection. The quantitation of fluorescence signals of Ce6 derivatives has been represented as a bar. Data were represented as mean ± SD from at least three independent experiments and were analyzed by one-way ANOVA with Tukey’s post hoc test: * p < 0.01, compared with vehicle-treated control of the spleen, ^# p < 0.01, compared with vehicle-treated control of the lungs, ^& p < 0.01, compared with vehicle-treated control of the liver.
Biodistribution analysis for Ce6 and Ce6-curcumin derivatives was calculated by measuring tissue fluorescence. […] The fluorescence intensity was normalized to the tissue weight.

BALB/c 3T3 cells = experiment: MTT cytotoxicity of Ce6-curcumin derivative PDT in BALB/c 3T3 cells; format: cell-based, mouse; conditions: Mus musculus, BALB/c3T3, light or radiation study; 3 h treatment, 660 nm 20 J/cm^2, MTT after 24 h; read-out: IC50 BALB/c 3T3 cell viability
Method: as §1, §2

[6] = LED light, read-out: LED Condition (EC50, μM) ABTS radical scavenging
[7] = dark, read-out: Dark Condition (EC50, μM) ABTS radical scavenging

C=Cc1c(C)c2cc3nc(c(CC(=O)OC)c4[nH]c(cc5nc(cc1[nH]2)C(C)=C5CC)c(C)c4C(=O)NCCCNC(=O)CCCC(=O)Oc1ccc(/C=C/C(=O)CC(=O)/C=C/c2ccc(O)c(OC)c2)cc1OC)C(CCC(=O)OC)C3C (stereo not drawn) [Ce6-propane-curcumin]
collagen synthesis [1]: increase in collagen synthesis in a dose-dependent manner | EC50 [2, 6]: 34.9 ± 8.16 µM | EC50 [2, 7]: 18.9 ± 3.04 µM | IC50 [3]: 2.04 µM | cell viability of UVB-irradiated BALB/c 3T3 cells [4]: not affected

C=Cc1c(C)c2cc3nc(c(CC(=O)OC)c4[nH]c(cc5nc(cc1[nH]2)C(C)=C5CC)c(C)c4C(=O)NCCCOCCOCCOCCCNC(=O)CCCC(=O)Oc1ccc(/C=C/C(=O)CC(=O)/C=C/c2ccc(O)c(OC)c2)cc1OC)C(CCC(=O)OC)C3C (stereo not drawn) [Ce6-diPEG-curcumin]
ex vivo fluorescence signal in organs [5]: highest fluorescence | EC50 [2, 6]: 22.3 ± 2.62 µM | ABTS EC50 value compared to the standard antioxidant 5-ALA hydrochloride ([2]; dark): ~74% | EC50 [2, 7]: 15.51 ± 0.01 µM | IC50 (BALB/c 3T3 cells): 0.8 µM | IC50 [3]: 0.83 µM | concentration from which cytotoxicity was shown in UVB-irradiated BALB/c 3T3 cells [4]: ≥ 4 µM
